Results: PMC2680961, “Homologous desensitization of signalling by the alpha (α) isoform of the human thromboxane A2 receptor: A specific role for nitric oxide signalling” (Biochimica et Biophysica Acta, 2007)
Residue numbers refer to the chain shown, from its start.

Key:
[1] = molecular target: T1, TP^Δ328 (Homo sapiens, UniProt P21731); experiment: [3H]SQ29,548 radioligand binding, Scatchard analysis, HEK.TP^Δ328
T1 construct: expressed in transfected cells
T1 sequence (P21731 1-328): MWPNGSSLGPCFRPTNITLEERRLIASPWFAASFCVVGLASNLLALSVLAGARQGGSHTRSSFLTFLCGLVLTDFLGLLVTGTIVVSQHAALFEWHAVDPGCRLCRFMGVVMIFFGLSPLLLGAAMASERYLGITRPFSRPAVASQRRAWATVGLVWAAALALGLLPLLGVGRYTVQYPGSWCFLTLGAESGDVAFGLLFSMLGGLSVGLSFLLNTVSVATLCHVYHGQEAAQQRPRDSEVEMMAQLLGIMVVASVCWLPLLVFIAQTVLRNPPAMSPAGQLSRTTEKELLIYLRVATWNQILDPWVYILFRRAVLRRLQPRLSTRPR
Description: (§1) Cells were harvested by centrifugation at 500×g at 4 °C for 5 min and washed three times with ice-cold Ca^2+/Mg^2+-free phosphate-buffered saline (PBS). TP radioligand binding assays were carried out at 30 °C for 30 min in 100 μl reactions in the presence of 0–40 nM [^3H] […] Protein determinations were carried out using the Bradford assay.
(§2) Radioligand binding and Scatchard analysis data were analysed using GraphPad Prisim V4.0 programme (GraphPad Software Inc., San Diego CA, USA). Statistical analyses were carried out using the unpaired Student's t test using the Statworks Analysis Package. p-values ≤ 0.01 indicated statistically significant differences.

[2] = molecular target: T2, TPα^Δ336 (Homo sapiens, UniProt P21731); experiment: [3H]SQ29,548 radioligand binding, Scatchard analysis, HEK.TPα^Δ336
T2 construct: expressed in transfected cells
T2 sequence (P21731 1-335): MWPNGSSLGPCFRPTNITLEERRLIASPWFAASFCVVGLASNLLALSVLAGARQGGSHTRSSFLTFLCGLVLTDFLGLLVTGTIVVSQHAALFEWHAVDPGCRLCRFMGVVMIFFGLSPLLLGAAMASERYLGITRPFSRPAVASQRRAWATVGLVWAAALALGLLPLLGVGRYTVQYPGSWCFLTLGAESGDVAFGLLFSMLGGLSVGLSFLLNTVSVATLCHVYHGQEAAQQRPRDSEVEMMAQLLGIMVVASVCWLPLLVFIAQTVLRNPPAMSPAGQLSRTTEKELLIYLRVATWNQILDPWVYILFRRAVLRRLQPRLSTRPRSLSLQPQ
Description: as §1, §2

[3] = molecular target: T3, TP^S145A,Δ328 (Homo sapiens, UniProt P21731, S145A); experiment: [3H]SQ29,548 radioligand binding, Scatchard analysis, HEK.TP^S145A,Δ328
T3 construct: expressed in transfected cells
T3 sequence (P21731 1-328 S145A): T1 sequence (P21731 1-328) with S145A
Description: as §1, §2

[4] = test system: TPα^S145,S331,T337A; experiment: Intracellular calcium mobilization, HEK.TPα^S145,S331,T337A cells; assay type: cell-based, human; settings: data not shown
Description: Measurement of intracellular calcium mobilization ([Ca^2+]i) in FURA2/AM preloaded HEK 293 cell lines (2 × 10^6 cells/dish), each transiently co-transfected with pADVA (10 μg), and pCMV:Gαq (25 μg), was carried out as previously described. To investigate the effect of GRK2/βARK1 on TP-mediated [Ca^2+]i mobilization, HEK.TPα or HEK.TPβ cells (2 × 10^6 cells/dish) were co-transfected with pADVA (10 μg), pCMV:Gαq (25 μg) along with pRK5:βARK1^495–689 (25 μg), encoding a dominant negative form of GRK2/βARK1[39]. […] For each measurement of [Ca^2+]i mobilization, aliquots of cells were diluted to 0.825 × 10^6 cells/ml in HBSSHB, 1 mM CaCl2 and FURA2 fluorescence was recorded (2 ml aliquots of cells) at 37^ °C with gentle stirring with a Perkin Elmer-Cetus LS50-B spectrofluorometer at excitation wavelengths of 340 nm and 380 nm and emission wavelength of 510 nm, respectively.
Cells were stimulated with the TP agonist U46619 (1 μM) and changes in [Ca^2+]i mobilization were monitored as a function of time. […]
The vehicle had no effect on U46619-mediated [Ca^2+]i mobilization. Calibration of the signal was performed in each sample by adding 0.2% Triton X-100 to obtain the maximal fluorescence ratio (Rmax) and then 1 mM EGTA to obtain the minimal fluorescence ratio (Rmin). […]

Bmax (pmol/mg protein ± S.E.M.) [1]	Bmax (pmol/mg protein ± S.E.M.) [2]	Bmax (pmol/mg protein ± S.E.M.) [3]	Compound	secondary U46619 [Ca2+]i response relative to primary response [4]
4.47 ± 0.04 pmol/mg protein	4.43 ± 0.04 pmol/mg protein	3.83 ± 0.03 pmol/mg protein	O=C(O)CCC/C=C\C[C@@H]1[C@H](CNNC(=O)Nc2ccccc2)[C@H]2CC[C@@H]1O2 [SQ29,548]	–
–	–	–	CCCCC[C@H](O)/C=C/[C@@H]1[C@@H](C/C=C\CCCC(=O)O)[C@H]2CO[C@@H]1C2 [U46619]	55%
